Test results as given in paper PMC12530842, “Potent, Selective, and Drug‐Like G Protein‐Coupled Receptor Kinase 5 and 6 Inhibitors: Design, Synthesis, and X‐Ray Structural Studies” (Chemmedchem, 2025).
Read-outs that look alike come from different tables or passages of the source.

Key:
GRK5 = biological target: T1, GRK5 (Homo sapiens, UniProt P34947); assay: GRK5 kinase inhibition assay, phosphorylation of tubulin ([γ-32P]-ATP); assay type: biochemical; conditions: for Selectivity GRK2/GRK5: fold selectivity for GRK5 over GRK2; for IC50: phosphorylation of the soluble substrate tubulin, ± standard deviation from 3 to 4 independent experiments
T1 construct: Human GR K5 (residues 1- 590) w ild- type and D 311N mutant w ere expressed in E. co li Rosetta; His tag (inferred from nickel-NTA purification); made in house; host or cells: E. coli Rosetta (DE3)
Description: (§1) The inhibitory potency of synthetic compounds containing the N‐heterocyclic amide functionalities was evaluated against human GRK2, GRK5 and GRK6 using our in vitro assays‐, as reported previously.^[ [35], [37] ^] […] We then investigated the effect of (R)‐ and (S)‐Boc pyrrolidine carboxamide derivatives. […] These improvements of GRK5 IC50 values over their Boc‐derivatives (6c and 6d) indicated the bulky Boc group may not be able to fit as well in the catalytic site of these GRKs. On the other hand, sterically less demanding acetamide derivatives 6e and 6f were well accommodated consistent with their very good activity against GRK5, GRK6, and GRK2, but only with marginal selectivity against GRK2. […] We also examined the effect of 3(S)‐ and 3(R)‐Boc‐pyrrolidine derivatives.
(§2) Protein expression and purification.
(§3) Human GR K5 (residues 1- 590) w ild- type and D 311N mutant w ere expressed in E. co li Rosetta (D E3) and purified v ia nickel-nitrilotriacetic acid affinity chromatography, followed by tandem columns consisting of a HiTrap Q HP anion exchange chromatography column and a HiTrap SP HP cation exchange chromatography column, and finished by Superdex 200 Increase size -exclusion chromatography, as described previously. Human GRK6 (with T10A and mutations that eliminate palmitoylation sites) was expressed in Sf9 insect cells [ 2] and was purified w ith the same protocol for GR K5 [1]. Human GRK2 w as purified as described previously.
(§4) Kinase inhibition Assays.
(§5) Inhibit ion assays were conducted in a reaction mixture containing 20 mM H EPES pH 7. 0, 2 mM MgC l2, and 0.025% n- dodecyl-β-D-maltoside. Prior to reaction initiation, GR K5 or GR K6 at 50 nM was mixed w ith porcine brain tubulin ( PurSolutions) at a concentration of 500 nM. The assay w as started w ith a 30- second incubation of inhibitors, followed by the add it ion of 5 μ M ATP supplemented w ith radioactive [γ-32P]-AT P a t 60 C i/m mol (PerkinElm er Life Sciences). Re actions pro ceeded for 5 m inut es at ro o m te mpera ture a nd were terminated by adding 4X SDS loading buffer. T he reaction mixtures were then s eparated via SDS - PAG E, dried, and exposed using a phosphor imaging screen. Quantification was performed using a Personal Molecular Imager and Quantity One 1- D Analysis Software. Analogous inhibition assays were conducted on p urified GR K2 wit h a t ub ulin conce ntrat ion of 1 μ M. Data ana lysis was perf orme d usin g Graph Pa d Pr ism, and IC50 values wer e calculated based on three- parameter dose- dependent curves (with a Hill coefficient fixed at 1) plotting phosphate transfer against inhibitor concentration. At least three replicates were conducted to determine the mean and standard deviation of IC50 values as published previously . […]
(§6) (6) The final models w ere validated with MolProbity prior to depos ition along with structure factors in the Protein Data Bank. Atomic figures were created with Py mol (7). Cr ystallographic statistics are reported in Supplemental Table 1. Coordinates for inh ib itor 6t (GRL-098- 22) w ere deposited in the Protein Data Bank, with accession code 9BR K.
(§7) 1. Y. Chen, A. Sonawane, R. Manda, R. K. G adi, J. J. G. Tesmer, A. K. Ghosh. Development of a new class of potent and highly select ive G protein- coupled r eceptor kinase 5 inhibitors and structural insight from crystal structures of inhibitor complexes. Eur. J. Med. Chem. 2024, 264, 115931.
(§8) 2. D. T. Lodowski, V. M. T esmer, J. L. Benovic, J. J. Tesmer. The structure of G protein- coupled receptor kinase (GRK)-6 defines a second lineage of GRKs. J. Bio l. C he m. 2006, 281,16785- 16793.

GRK6 = biological target: T2, GRK6 (Homo sapiens, UniProt P43250, C561S/C562S/C565S/T10A); assay: GRK6 kinase inhibition assay, phosphorylation of tubulin ([γ-32P]-ATP); assay type: biochemical; conditions: for Selectivity GRK5/GRK6: fold selectivity for GRK6 over GRK5; for IC50: phosphorylation of the soluble substrate tubulin, ± standard deviation from 3 to 4 independent experiments
T2 construct: His tag (inferred: purified by the GRK5 protocol, which starts with nickel-NTA); made in house; host or cells: Sf9 insect cells
Description: as §1, §2, §3, §4, §5, §6, §7, §8

GRK2 [1] = biological target: T3, GRK2 (Homo sapiens, UniProt P25098); assay: GRK2 kinase inhibition assay, phosphorylation of tubulin ([γ-32P]-ATP); assay type: biochemical; conditions: phosphorylation of the soluble substrate tubulin; ± standard deviation from 3 to 4 independent experiments
T3 construct: made in house
T3 sequence (P25098 1-689): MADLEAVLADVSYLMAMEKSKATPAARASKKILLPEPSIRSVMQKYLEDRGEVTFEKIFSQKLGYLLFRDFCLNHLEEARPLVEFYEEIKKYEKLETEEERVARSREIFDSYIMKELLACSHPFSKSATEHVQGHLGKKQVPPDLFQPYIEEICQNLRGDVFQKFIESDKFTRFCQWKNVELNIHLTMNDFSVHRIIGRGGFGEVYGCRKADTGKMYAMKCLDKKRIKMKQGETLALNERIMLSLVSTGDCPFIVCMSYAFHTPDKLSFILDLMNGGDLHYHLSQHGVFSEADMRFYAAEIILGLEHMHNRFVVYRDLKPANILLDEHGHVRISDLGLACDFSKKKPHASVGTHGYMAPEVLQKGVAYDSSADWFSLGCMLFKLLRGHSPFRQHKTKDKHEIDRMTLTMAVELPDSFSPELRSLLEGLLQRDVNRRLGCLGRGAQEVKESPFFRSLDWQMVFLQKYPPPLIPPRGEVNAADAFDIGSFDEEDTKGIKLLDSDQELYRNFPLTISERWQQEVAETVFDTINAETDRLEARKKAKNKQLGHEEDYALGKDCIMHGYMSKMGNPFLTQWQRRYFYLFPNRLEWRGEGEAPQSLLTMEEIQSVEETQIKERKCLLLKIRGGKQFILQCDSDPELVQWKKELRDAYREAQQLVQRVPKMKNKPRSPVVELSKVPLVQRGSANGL
Description: as §1, §2, §3, §4, §5, §6, §7, §8

GRK2 [2] = biological target: T3, GRK2; conditions: earlier work; cited from earlier work

T2 sequence (P43250 whole entry T10A/C561S/C562S/C565S): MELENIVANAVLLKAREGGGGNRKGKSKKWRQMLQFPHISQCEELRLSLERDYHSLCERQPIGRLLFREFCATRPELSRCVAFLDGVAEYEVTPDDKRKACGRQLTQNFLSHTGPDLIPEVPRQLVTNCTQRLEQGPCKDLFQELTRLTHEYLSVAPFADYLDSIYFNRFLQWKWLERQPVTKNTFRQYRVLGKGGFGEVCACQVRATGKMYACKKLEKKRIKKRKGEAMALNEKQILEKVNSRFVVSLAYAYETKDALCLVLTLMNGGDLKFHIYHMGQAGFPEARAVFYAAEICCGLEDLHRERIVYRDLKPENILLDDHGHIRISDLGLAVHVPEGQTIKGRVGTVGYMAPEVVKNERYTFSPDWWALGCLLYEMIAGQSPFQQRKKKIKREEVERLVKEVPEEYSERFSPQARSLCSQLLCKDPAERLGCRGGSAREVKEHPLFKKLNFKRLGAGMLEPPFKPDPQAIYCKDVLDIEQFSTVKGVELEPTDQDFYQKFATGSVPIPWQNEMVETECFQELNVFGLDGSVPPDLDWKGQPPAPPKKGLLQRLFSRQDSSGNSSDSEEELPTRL
T1 sequence (P34947 whole entry, the tested form may be a part): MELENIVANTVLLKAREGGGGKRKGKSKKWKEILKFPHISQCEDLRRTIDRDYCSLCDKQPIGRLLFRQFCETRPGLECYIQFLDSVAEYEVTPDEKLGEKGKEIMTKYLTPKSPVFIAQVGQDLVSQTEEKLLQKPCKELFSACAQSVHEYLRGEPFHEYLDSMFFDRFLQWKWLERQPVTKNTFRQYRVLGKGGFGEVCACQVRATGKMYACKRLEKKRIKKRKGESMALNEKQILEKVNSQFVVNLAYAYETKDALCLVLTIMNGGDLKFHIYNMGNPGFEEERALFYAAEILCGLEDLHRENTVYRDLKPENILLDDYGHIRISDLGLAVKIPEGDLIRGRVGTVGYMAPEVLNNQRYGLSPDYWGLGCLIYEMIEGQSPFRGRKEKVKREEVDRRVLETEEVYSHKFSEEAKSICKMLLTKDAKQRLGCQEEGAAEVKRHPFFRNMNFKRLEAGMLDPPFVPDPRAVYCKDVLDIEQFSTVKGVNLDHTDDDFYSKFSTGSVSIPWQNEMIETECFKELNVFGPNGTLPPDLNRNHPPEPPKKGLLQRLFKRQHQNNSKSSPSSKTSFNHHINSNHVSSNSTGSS

Row | Structure (SMILES) | Selectivity GRK2/GRK5 (GRK5) | IC50 (GRK5) | Selectivity GRK5/GRK6 (GRK6) | IC50 (GRK6) | IC50 (GRK2 [1]) | selectivity over GRK2 (GRK5; GRK5 vs GRK2, as stated in text) | IC50 (GRK2 [2])
1 | Cc1[nH]c(/C=C2\C(=O)Nc3ccc(C(=O)N[C@H](C)c4ccc(F)cc4)cc32)c(C)c1NC(=O)[C@@H]1CCCN(C(=O)OC(C)(C)C)C1 [6p, Tert‐Butyl(R)‐3‐((5‐(((Z)‐5‐(((R)‐1‐(4‐Fluorophenyl)Ethyl)Carbamoyl)‐2‐Oxoindolin‐3‐Ylidene)Methyl)‐2,4‐Dimethyl‐1H‐Pyrrol‐3‐Yl)Carbamoyl)Piperidine‐1‐Carboxylate] | 1500 fold | 0.41 ± 0.1 µM | 1 fold | 0.34 ± 0.3 µM | 610 ± 450 µM | over 1500 fold | –
2 | Cc1[nH]c(/C=C2\C(=O)Nc3ccc(C(=O)N[C@H](C)c4ccc(F)cc4)cc32)c(C)c1NC(=O)[C@@H]1CCCNC1 [6r, (Z)‐3‐((3,5‐Dimethyl‐4‐((R)‐Piperidine‐3‐Carboxamido)‐1H‐Pyrrol‐2‐Yl)Methylene)‐N‐((R)‐1‐(4‐Fluorophenyl)Ethyl)‐2‐Oxoindoline‐5‐Carboxamide] | 20 fold | 0.03 ± 0.002 µM | 1 fold | 0.06 ± 0.02 µM | 0.62 ± 0.3 µM | – | –
3 | Cc1[nH]c(/C=C2\C(=O)Nc3ccc(C(=O)N[C@H](C)c4ccc(F)cc4)cc32)c(C)c1NC(=O)[C@@H]1CN(C(=O)OC(C)(C)C)CCN1 [6t, Tert‐Butyl(S)‐3‐((5‐(((Z)‐5‐(((R)‐1‐(4‐Fluorophenyl)Ethyl)Carbamoyl)‐2‐Oxoindolin‐3‐Ylidene)Methyl)‐2,4‐Dimethyl‐1H‐Pyrrol‐3‐Yl)Carbamoyl)Piperazine‐1‐Carboxylate] | >1600 fold | 0.6 ± 0.1 µM | 7 fold | 0.09 µM | > 1000 µM | – | –
4 | Cc1[nH]c(/C=C2\C(=O)Nc3ccc(C(=O)N[C@H](C)c4ccc(F)cc4)cc32)c(C)c1NC(=O)[C@H]1CNCCN1 [6u, (Z)‐3‐((3,5‐Dimethyl‐4‐((R)‐Piperazine‐2‐Carboxamido)‐1 H‐Pyrrol‐2‐Yl)Methylene)‐N‐((R)‐1‐(4‐Fluorophenyl)Ethyl)‐2‐Oxoindoline‐5‐Carboxamide] | 15 fold | 0.014 ± 0.001 µM | – | 0.05 µM | 0.21 ± 0.1 µM | – | –
5 | Cc1[nH]c(/C=C2\C(=O)Nc3ccc(C(=O)N[C@H](C)c4ccc(F)cc4)cc32)c(C)c1NC(=O)CCl [compound 1] | – | – | – | – | – | – | 1.2 µM

Further molecules by falling IC50 (GRK5), results first:

Row | Selectivity GRK2/GRK5 (GRK5) | IC50 (GRK5) | Selectivity GRK5/GRK6 (GRK6) | IC50 (GRK6) | IC50 (GRK2 [1]) | selectivity over GRK2 (GRK5; GRK5 vs GRK2, as stated in text) | Structure (SMILES) | IC50 (GRK2 [2])
6 | 3 fold | 33 ± 6 µM | 37 fold | 0.9 ± 0.8 µM | 100 ± 70 µM | – | Cc1[nH]c(/C=C2\C(=O)Nc3ccc(C(=O)N[C@H](C)c4ccc(F)cc4)cc32)c(C)c1NC(=O)[C@@H]1CCCCN1C(=O)OC(C)(C)C [6n, Tert‐Butyl(S)‐2‐((5‐(((Z)‐5‐(((R)‐1‐(4‐Fluorophenyl)Ethyl)Carbamoyl)‐2‐Oxoindolin‐3‐Ylidene)Methyl)‐2,4‐Dimethyl‐1H‐Pyrrol‐3‐Yl)Carbamoyl)Piperidine‐1‐Carboxylate] | –
7 | >1000 fold | 1 ± 0.6 µM | 1 fold | 0.88 ± 0.05 µM | > 1000 µM | – | Cc1[nH]c(/C=C2\C(=O)Nc3ccc(C(=O)N[C@H](C)c4ccc(F)cc4)cc32)c(C)c1NC(=O)[C@H]1CCN(C(=O)OC(C)(C)C)C1 [6l, Tert‐Butyl(S)‐3‐((5‐(((Z)‐5‐(((R)‐1‐(4‐Fluorophenyl)Ethyl)Carbamoyl)‐2‐Oxoindolin‐3‐Ylidene)Methyl)‐2,4‐Dimethyl‐1H‐Pyrrol‐3‐Yl)Carbamoyl)Pyrrolidine‐1‐Carboxylate] | –
8 | 2 fold | 0.5 ± 0.1 µM | – | 2.5 ± 0.4 µM | 1.2 ± 0.4 µM | – | Cc1[nH]c(/C=C2\C(=O)Nc3ccc(C(=O)N[C@H](C)c4ccc(F)cc4)cc32)c(C)c1NC(=O)[C@H]1CCCCN1C(=O)OC(C)(C)C [6m, Tert‐Butyl(R)‐2‐((5‐(((Z)‐5‐(((R)‐1‐(4‐Fluorophenyl)Ethyl)Carbamoyl)‐2‐Oxoindolin‐3‐Ylidene)Methyl)‐2,4‐Dimethyl‐1H‐Pyrrol‐3‐Yl)Carbamoyl)Piperidine‐1‐Carboxylate] | –
9 | 66 fold | 0.094 ± 0.01 µM | 1 fold | 0.15 ± 0.06 µM | 6.2 ± 3 µM | – | Cc1[nH]c(/C=C2\C(=O)Nc3ccc(C(=O)N[C@H](C)c4ccc(F)cc4)cc32)c(C)c1NC(=O)[C@H]1CCCN(C(=O)OC(C)(C)C)C1 [6o, Tert‐Butyl(S)‐3‐((5‐(((Z)‐5‐(((R)‐1‐(4‐Fluorophenyl)Ethyl)Carbamoyl)‐2‐Oxoindolin‐3‐Ylidene)Methyl)‐2,4‐Dimethyl‐1H‐Pyrrol‐3‐Yl)Carbamoyl)Piperidine‐1‐Carboxylate] | –
10 | 430 fold | 0.081 ± 0.01 µM | 1 fold | 0.06 ± 0.02 µM | 35 ± 9.4 µM | – | Cc1[nH]c(/C=C2\C(=O)Nc3ccc(C(=O)N[C@H](C)c4ccc(F)cc4)cc32)c(C)c1NC(=O)[C@H]1CN(C(=O)OC(C)(C)C)CCN1 [6s, Tert‐Butyl(R)‐3‐((5‐(((Z)‐5‐(((R)‐1‐(4‐Fluorophenyl)Ethyl)Carbamoyl)‐2‐Oxoindolin‐3‐Ylidene)Methyl)‐2,4‐Dimethyl‐1H‐Pyrrol‐3‐Yl)Carbamoyl)Piperazine‐1‐Carboxylate] | –
11 | 4 fold | 0.03 ± 0.02 µM | 2 fold | 0.016 ± 0.003 µM | 0.11 ± 0.02 µM | – | Cc1[nH]c(/C=C2\C(=O)Nc3ccc(C(=O)N[C@H](C)c4ccc(F)cc4)cc32)c(C)c1NC(=O)[C@H]1CCCNC1 [6q, (Z)‐3‐((3,5‐Dimethyl‐4‐((S)‐Piperidine‐3‐Carboxamido)‐1H‐Pyrrol‐2‐Yl)Methylene)‐N‐((R)‐1‐(4‐Fluorophenyl)Ethyl)‐2‐Oxoindoline‐5‐Carboxamide] | –
12 | 10 fold | 0.016 ± 0.0005 µM | 1 fold | 0.026 ± 0.02 µM | 0.19 ± 0.1 µM | – | Cc1[nH]c(/C=C2\C(=O)Nc3ccc(C(=O)N[C@H](C)c4ccc(F)cc4)cc32)c(C)c1NC(=O)[C@@H]1CNCCN1 [6v, (Z)‐3‐((3,5‐Dimethyl‐4‐((S)‐Piperazine‐2‐Carboxamido)‐1H‐Pyrrol‐2‐Yl)Methylene)‐N‐((R)‐1‐(4‐Fluorophenyl)Ethyl)‐2‐Oxoindoline‐5‐Carboxamide] | –
